Data on one molecule can be found in patent publication US7579331B2, “Method of improved diuresis in individuals with impaired renal function” (Novacardia, Inc., priority 2004, dated 2009).

Where two headings read alike, the source gives them in different places.

The target in data set [1] is T1, adenosine A1 receptors (Homo sapiens, UniProt P30542).
T1 sequence (P30542 1-326): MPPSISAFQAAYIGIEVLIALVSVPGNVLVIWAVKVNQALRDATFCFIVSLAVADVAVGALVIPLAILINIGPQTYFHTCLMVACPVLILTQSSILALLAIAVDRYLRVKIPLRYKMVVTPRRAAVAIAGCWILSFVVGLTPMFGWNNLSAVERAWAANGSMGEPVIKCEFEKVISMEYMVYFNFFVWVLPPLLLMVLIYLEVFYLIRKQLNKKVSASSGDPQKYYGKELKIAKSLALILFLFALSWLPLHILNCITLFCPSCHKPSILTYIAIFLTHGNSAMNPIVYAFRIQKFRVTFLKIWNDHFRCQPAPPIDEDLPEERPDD
The following applies: read-out: A1KI, cited from earlier work.

The next data set relates to urine volume. The following applies: equi-potent dose .3 mg/kg or 20 mg, Wolff et al 1998; cited from earlier work.
For data set [2], the target named is T1, adenosine A1 receptors. The following applies: BG 9719 relative to KW-3902.
The conditions of data set [3]: reported by Ticho et al 2003; cited from earlier work.

Take `CCCn1c(=O)c2nc([C@H]3C[C@H]4C[C@@H]3[C@@H]3O[C@H]43)[nH]c2n(CCC)c1=O` [BG 9719]: at adenosine A1 receptors [1] (adenosine A1 receptor), the Ki is 450 ± 40 pM. Further, the Ki at adenosine A1 receptors [1] (repeated in the equi-potent dose table) is 450 ± 40 pM. In the data set with urine volume, the “% Urine volume increase over placebo, 3 hr” value is listed as 33%. The “greater affinity for the A1 receptor than KW-3902” value at adenosine A1 receptors [2] is 60%. For the same molecule, in data set [3], the solubility result is on record as “poor” and the stability result is recorded as “poor”.
